Entries after “also recorded” stand apart in the source; their conditions may differ.
Columns and labels:
Format in all cases: cell-based
CD19+ primary B cells = test: BrdU incorporation proliferation assay, primary B cells stimulated with donor plasma; details: OTG177 up to 1000 μM, 72 hours
Method: (§1) 0.5×10^6 primary cells (purified CD19+ primary B cells, Precision for Medicine, MD) or 0.5×10^6 CD3+ primary T cells (Precision for Medicine, MD) from a healthy donor were assayed for their rate of proliferation via the BrdU incorporation method (Roche kit 11647229001), following vendor protocols. In brief, BrdU was added to cell culture for 2 hours-12 hours. The cells were dried with hot air ventilation and fixed with saline and ethanol. The incorporated BrdU was measured with an ELISA assay with an anti BrdU antibody (Roche).
(§2) A representative compound according to the disclosure, OTG177 (FIG. 4), was constructed according to the synthetic scheme shown in FIGS. 2A and 2B using the Bait CD10 substrate succinyl-Ala-Ala-Phe- and an antiproliferative Payload RMP. This compound was tested in this proliferation assay as follows: negative selected lymphocytes (either B or T cells) were incubated with different concentration of OTG177 up to 1000 μM with 10% plasma from either a healthy donor or a flaring Pemphigus Vulgaris donor. All conditions had 30 units/ml of heparin to prevent clotting of the plasma. Cells were incubated for 72 hours at 37° C. 5% CO2 and a BrdU incorporation assay was performed with kit (Roche) as described before.

CD3+ primary T cells = test: BrdU incorporation proliferation assay, primary T cells stimulated with donor plasma; details: OTG177 up to 1000 μM, 72 hours
Method: as §1, §2

[1] = tested on: PBMC (granulocytes, monocytes, lymphocytes); test: Mixed-cell assay, PBMC composition by flow cytometry (SSC vs CD45); details: up to 50 μM; healthy, PV or SLE donor plasma; FIG. 5B
Method: (§3) 0.5×10^6 primary cells (purified CD19+ primary B cells (Precision for Medicine, MD) or 0.5×10^6 CD3+ primary T cells (Precision for Medicine, MD Primary PBMCs (Precision for Medicine, MD) from a healthy donor were stimulated with 10% v/v plasma from either a healthy donor, a pemphigus vulgaris (PV) donor, or a systemic lupus erythematosus (SLE) donor for 24 hours at 37 C, 5% CO2. Compound OTG177 was added at 1 μM, 10 μM and 50 μM concentrations with DMSO as a mock treatment. After 24 hours-72 hours of treatment, cells were labeled with anti-CD45 antibody (5 μl/million cells in 100 μl volume, clone HI30, BUV395, Biolegend, CA), anti-CD19 antibody (5 μl per million cells in 100 μl volume, Clone HIB, PE-CF594, Biolegend, CA) anti-CD3 antibody (5 μl/million cells in 100 μl volume, clone SK7, FITC, Biolegend, CA). Propidium (1 μg/ml) was used to select cells based on their viability. The cells were analyzed by multi-colored flow cytometry using an Attune NxT Flow Cytometer (ThermoFisher).
Overall peripheral blood mononuclear cell (PBMC) composition was evaluated by gating side scattering (SSC) versus CD45, a pan leukocyte marker (FIG. 5A). This gating strategy can differentiate different leukocyte populations based on their scattering profiles.

[2] = tested on: primary CD19+ B lymphocytes; test: Mixed-cell assay, B lymphocytes in mixed PBMC population by flow cytometry; details: FIG. 5E; for suppression of B cell proliferation in mixed PBMC population: 1 μM to 50 μM range
Method: as §3
(§4) In addition, the effect of OTG177 on B and T lymphocytes was examined by first gating all PBMCs by forward scattering (FSC) versus side scattering (SSC) and isolating the low SSC and high FSC population (FIG. 5C), gating on this selection, the populations of segregated based on their staining to CD19 (red) and CD3 antibodies (green) (FIG. 5D).

[3] = tested on: primary CD3+ T lymphocytes; test: Mixed-cell assay, T lymphocytes in mixed PBMC population by flow cytometry; details: up to 50 μM; healthy, PV and SLE plasma; FIG. 5F
Method: as §3, §4

## C[C@H](NC(=O)CCC(=O)O)C(=O)N[C@@H](C)C(=O)N[C@@H](Cc1ccccc1)C(=O)Nc1ccc2c(c1)COP(=O)(OC[C@H]1O[C@@H](n3cnc(C(N)=O)n3)[C@H](O)[C@@H]1O)O2 (stereo partly drawn) [OTG177, 4-[[(1S)-2-[[(1S)-2-[[(1S)-1-benzyl-2-[[2-[[(2R,3S,4R,5R)-5-(3-carbamoyl-1,2,4-triazol-1-yl)-3,4-dihydroxy-tetrahydrofuran-2-yl]methoxy]-2-oxo-4H-1,3,2benzodioxaphosphinin-6-yl]amino]-2-oxo-ethyl]amino]-1-methyl-2-oxo-ethyl]amino]-1-methyl-2-oxo-ethyl]amino]-4-oxo-butanoic Acid]
CD19+ primary B cells; 10% flaring pemphigus vulgaris donor's plasma, FIG. 4C
  antiproliferative activity in B cells: strong antiproliferative activity
CD19+ primary B cells; 10% healthy donor's plasma, FIG. 4B
  antiproliferative activity in B cells: did not exhibit detectable antiproliferative activity
CD3+ primary T cells; 10% flaring pemphigus vulgaris donor's plasma, FIG. 4E
  antiproliferative activity in T cells: did not exhibit antiproliferative activity
CD3+ primary T cells; 10% healthy donor's plasma, FIG. 4D
  antiproliferative activity in T cells: did not exhibit antiproliferative activity
[1]
  effect on PBMC composition (% granulocytes, monocytes, lymphocytes): not affected; also recorded: does not have obvious effects
[2]; stimulated with PV plasma
  suppression of B cell proliferation in mixed PBMC population: dose-dependent suppression; also recorded: suppressive effect
[2]; stimulated with SLE plasma
  suppression of B cell proliferation in mixed PBMC population: dose-dependent suppression; also recorded: suppressive effect
[2]; stimulated with healthy plasma, 1, 10, 50 μM
  effect on B cells in mixed PBMC population: not affected
[3]
  effect on T cells in mixed PBMC population: not affected; also recorded: no obvious effect

From US20240350649A1, “TREATMENT AND DIAGNOSIS OF IMMUNE DISORDERS RELATING TO ABERRANT IMMUNE CELLS” (Octagon Therapeutics, Inc., priority 2021, published 2024)
